In test [1] the target is Ba/F3 ERBB2 A775_G776insYVMA (Homo sapiens, UniProt P04626, DUP772-775, cells depend on it). Put plainly: Cell viability assay, Ba/F3 ERBB2 A775_G776insYVMA. The format is cell-based, mouse. The following applies: Ba/F3 ERBB2 YVMA cells, cell viability, 72 hours, CellTiter Glo; Table B5; read-out: Ba/F3 ERBB2 YVMA, IC50. The procedure:
Cells were treated with compounds, and cell viability was measured as a metric of kinase inhibition.
The Ba/F3 cell line is IL-3-dependent mouse cell line derived from the C3H mouse strain. Ba/F3 cell lines were engineered to express human ERBB2 or EGFR kinases, rendering the cells IL-3 independent. The lines were generated via retroviral transduction utilizing a Moloney murine leukemia virus (MMLV) promoter, and constructs are stably integrated into the cell genome. The sequences of the ERBB2 and EGFR genes used were NCBI Reference Sequences NM_004448.3 and NM_005228.3, respectively.
Similarly, Ba/F3 cell lines engineered to express EGFR, ERBB2, or ERBB2 mutants were grown, harvested, counted and seeded at 3000 cells per well in 96-well plates. A subset of wells contained media only (low control, “LC”).
Table B1 provides the growth media and number of cells seeded per well for the each cell line.
Plates were placed in a 37° C., 5% CO2 incubator for 72 hours. Plates were then removed from the incubator and equilibrated for 15 minutes at room temperature. 40 μl of CellTiter Glo reagent (Promega) was added to measure the relative level of metabolically active cells by quantifying intracellular ATP concentrations. Plates were incubated for 30 minutes at room temperature, and luminescence was measured. […] Graphical curves were fitted using a nonlinear regression model with a sigmoidal dose response.

Test [2] concerns the target T1, phosphorylated EGFR (pEGFR) (Homo sapiens, UniProt P00533).
T1 construct: performed to measure phosphorylated EGFR levels using A431 cells (10% FBS); endogenous in cells; host or cells: A431
Put plainly: Detection of phosphorylated EGFR (pEGFR) in EGF-stimulated A431 cells. Conditions: A431 cells (10% FBS), 4 hours incubation, EGF 30 ng/mL 10 minutes, AlphaLISA. The format is cell-based. The procedure: Enzyme-linked immunosorbent assays (ELISA) were performed to measure phosphorylated EGFR levels using A431 cells (10% FBS). A431 (1.0*10^4 cells/40 μl/well) cells were seeded in 384 well. Compounds were dissolved in DMSO, serially diluted in DMSO and then were added, mixed, and incubated for 4 hours at 37° C., 5% CO2. Following the 4-hours incubation, cells were stimulated for 10 minutes with EGF (Invitrogen, cat #PHG0311) at a final concentration of 30 ng/mL in the incubator. The media was aspirated and cells were lysed in 10 μL lysis buffer with protease and phosphatase inhibitors (PerkinElmer, cat #ALSU-PEGFR-A50K). The plates were placed on a shaker for 5 minutes and then incubated for 30 min at 4° C. for complete lysis. The lysate was transferred to an Optiplate (Perkin Elmer, cat #6007290).
Acceptor mix (PerkinElmer, cat #ALSU-PEGFR-A50K) was prepared just before use and 5 μL was dispensed to all the wells, followed by a 1.5-2 h incubation at room temperature in dark. The donor mix (PerkinElmer, cat #ALSU-PEGFR-A50K) was prepared under low light conditions prior to use and […] of donor mix was added to all the wells under subdued lighting or green filters. The plates were placed on a shaker for 5 min, sealed, and incubated overnight at room temperature in dark. Plates were read on the Envision (PerkinElmer) using standard AlphaLISA settings.
The percentage of inhibition on EGFR phosphorylation was calculated following equation: % Inhibition=100×(LumHC−LumSample)/(LumHC−LumLC). The low and high controls (LC/HC) are generated from lysate from wells with cells treated with DMSO or […] Staurosporine (BioAustralis, cat #BIA-S1086), […]. IC50 values were calculated by fitting the Curve using XLfit (v5.3.1.3), equation 201: Y=Bottom+(Top−Bottom)/(1+10^((Log IC50−X)*HillSlope)).
For orientation: In Alpha technology, singlet oxygen from a donor bead excites a nearby acceptor bead.

Test [3] addresses T2, phosphorylated ERBB2 (pERBB2) (Homo sapiens, UniProt P04626).
T2 construct: endogenous in cells; host or cells: BT-474
Put plainly: Detection of phosphorylated ERBB2 (pERBB2) by ELISA in BT-474 cells. Conditions: four hours incubation. The format is cell-based. The procedure: BT-474 cells were seeded into a 96-well at 2.0*10^4 cells/100 μl/well.
Compounds were dissolved and serially diluted in DMSO. The compounds were then were added, mixed, and incubated for four hours at 37° C., 5% CO2. Compounds were added using four-fold dilutions at final concentrations ranging from 10 μM to 0.01 nM.
Following the four hour incubation with compounds, cell lysates were prepared.
Plates were centrifuged for 5 min at 3000 RPM, and supernatant was removed from each well. Cells were washed 3 times by resuspension in 150 μl PBS, followed by centrifugation and removal of the supernatant, as above. […] Cells were incubated with lysis buffer for 1 hour at 4° C., and then stored at −80° C.
Enzyme-linked immunosorbent assays (ELISA) were performed to measure phosphorylated ERBB2 levels. […] The next day, plates were washed with PBS+0.05% Tween20 (PBST). 150 μl of 5% BSA blocking solution was added for 1 hour at room temperature, with shaking. Plates were washed with PBST. Cell lysates were thawed and 100 μl of lysate was added to the ELISA plate. The plates were incubated for 2 hours at room temperature, with shaking. […] Plates were incubated for 1 hour at room temperature, with shaking. Plates were then washed with PBST, and 100 μl TMB substrate solution (R&D Systems, cat #DY999) was added. Plate were incubated in the dark for 20 minutes at room temperature. 50 μl of Stop solution (R&D Systems, cat #DY994) (50 μl) was added to each well and mixed.
Optical density at 450 nm was read on an EnSpire plate reader (Perkin Elmer). The remaining kinase activity by calculated using the following formula: % Relative activity=100×(A450sample−A450LC)/(A450HC−A450LC). The low and high control values (“LC” and “HC”) were generated from lysate from wells without cells or with cells treated with 0.1% DMSO, respectively.

pIC50: −log10 of the molar value.

The term pIC50 denotes the negative decadic logarithm of the IC50, by convention in mol/L. Low values mean a large IC50, high ones a small IC50.

T2 sequence (P04626 23-1255): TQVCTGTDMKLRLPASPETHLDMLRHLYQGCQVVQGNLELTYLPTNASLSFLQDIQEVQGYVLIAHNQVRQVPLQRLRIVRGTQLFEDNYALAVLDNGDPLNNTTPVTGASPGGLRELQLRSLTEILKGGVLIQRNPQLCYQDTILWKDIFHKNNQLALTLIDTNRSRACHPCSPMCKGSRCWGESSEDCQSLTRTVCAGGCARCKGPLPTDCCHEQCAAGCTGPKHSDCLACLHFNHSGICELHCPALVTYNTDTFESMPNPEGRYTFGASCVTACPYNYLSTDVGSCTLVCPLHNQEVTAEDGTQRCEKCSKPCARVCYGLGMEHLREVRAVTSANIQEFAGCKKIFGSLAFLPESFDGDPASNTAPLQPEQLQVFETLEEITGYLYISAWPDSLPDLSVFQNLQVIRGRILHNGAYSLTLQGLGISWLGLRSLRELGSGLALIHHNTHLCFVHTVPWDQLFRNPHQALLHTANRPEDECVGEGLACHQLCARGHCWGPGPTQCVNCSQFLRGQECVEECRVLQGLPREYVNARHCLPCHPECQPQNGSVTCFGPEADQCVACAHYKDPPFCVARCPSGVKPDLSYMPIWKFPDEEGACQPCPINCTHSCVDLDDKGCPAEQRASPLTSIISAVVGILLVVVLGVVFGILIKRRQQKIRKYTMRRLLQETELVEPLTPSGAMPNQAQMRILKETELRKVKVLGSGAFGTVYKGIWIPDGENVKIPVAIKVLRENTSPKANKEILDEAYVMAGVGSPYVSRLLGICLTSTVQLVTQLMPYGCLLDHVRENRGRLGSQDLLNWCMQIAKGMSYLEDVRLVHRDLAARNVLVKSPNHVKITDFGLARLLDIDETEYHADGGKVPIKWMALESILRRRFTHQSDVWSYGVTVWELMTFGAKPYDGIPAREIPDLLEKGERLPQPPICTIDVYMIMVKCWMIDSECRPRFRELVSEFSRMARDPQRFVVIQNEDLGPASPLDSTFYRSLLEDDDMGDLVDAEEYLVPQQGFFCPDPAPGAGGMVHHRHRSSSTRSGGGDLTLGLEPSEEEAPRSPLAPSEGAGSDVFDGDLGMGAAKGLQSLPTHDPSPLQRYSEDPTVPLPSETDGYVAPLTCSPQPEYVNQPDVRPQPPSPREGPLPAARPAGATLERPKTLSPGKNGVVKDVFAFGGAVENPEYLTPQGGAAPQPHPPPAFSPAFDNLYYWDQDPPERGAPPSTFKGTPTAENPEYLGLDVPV
T1 sequence (P00533 25-1210): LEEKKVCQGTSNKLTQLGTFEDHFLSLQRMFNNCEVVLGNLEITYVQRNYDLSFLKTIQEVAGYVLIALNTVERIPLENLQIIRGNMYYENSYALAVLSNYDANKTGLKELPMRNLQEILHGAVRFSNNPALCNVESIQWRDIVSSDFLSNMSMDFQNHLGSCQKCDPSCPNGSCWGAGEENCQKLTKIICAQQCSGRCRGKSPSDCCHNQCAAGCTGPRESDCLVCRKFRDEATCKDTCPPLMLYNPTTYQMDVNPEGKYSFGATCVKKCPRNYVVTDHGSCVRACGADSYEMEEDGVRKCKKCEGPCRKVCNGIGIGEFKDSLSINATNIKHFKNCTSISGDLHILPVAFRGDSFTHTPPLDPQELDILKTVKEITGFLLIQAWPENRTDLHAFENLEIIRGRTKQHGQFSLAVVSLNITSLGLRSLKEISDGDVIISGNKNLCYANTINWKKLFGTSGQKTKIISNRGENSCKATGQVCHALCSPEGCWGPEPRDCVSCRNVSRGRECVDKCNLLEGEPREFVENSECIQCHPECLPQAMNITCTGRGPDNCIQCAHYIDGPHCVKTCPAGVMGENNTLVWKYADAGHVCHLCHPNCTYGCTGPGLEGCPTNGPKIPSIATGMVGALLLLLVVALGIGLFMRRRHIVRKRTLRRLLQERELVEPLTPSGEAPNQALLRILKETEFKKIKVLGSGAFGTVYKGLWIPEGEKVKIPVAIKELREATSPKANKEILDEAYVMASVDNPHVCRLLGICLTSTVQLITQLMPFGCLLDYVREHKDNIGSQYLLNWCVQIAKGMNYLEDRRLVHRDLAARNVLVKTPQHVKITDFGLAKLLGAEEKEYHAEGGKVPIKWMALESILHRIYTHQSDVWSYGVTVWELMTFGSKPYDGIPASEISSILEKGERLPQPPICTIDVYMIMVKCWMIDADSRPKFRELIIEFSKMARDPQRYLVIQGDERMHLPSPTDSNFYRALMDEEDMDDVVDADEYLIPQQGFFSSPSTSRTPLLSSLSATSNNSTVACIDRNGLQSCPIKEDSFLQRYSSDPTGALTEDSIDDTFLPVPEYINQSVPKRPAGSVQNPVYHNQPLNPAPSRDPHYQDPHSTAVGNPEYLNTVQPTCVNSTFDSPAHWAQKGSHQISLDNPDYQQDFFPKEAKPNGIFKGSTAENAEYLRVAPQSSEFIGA
Chain of Ba/F3 ERBB2 A775_G776insYVMA (P04626 with tags, fused parts or gaps DUP772-775): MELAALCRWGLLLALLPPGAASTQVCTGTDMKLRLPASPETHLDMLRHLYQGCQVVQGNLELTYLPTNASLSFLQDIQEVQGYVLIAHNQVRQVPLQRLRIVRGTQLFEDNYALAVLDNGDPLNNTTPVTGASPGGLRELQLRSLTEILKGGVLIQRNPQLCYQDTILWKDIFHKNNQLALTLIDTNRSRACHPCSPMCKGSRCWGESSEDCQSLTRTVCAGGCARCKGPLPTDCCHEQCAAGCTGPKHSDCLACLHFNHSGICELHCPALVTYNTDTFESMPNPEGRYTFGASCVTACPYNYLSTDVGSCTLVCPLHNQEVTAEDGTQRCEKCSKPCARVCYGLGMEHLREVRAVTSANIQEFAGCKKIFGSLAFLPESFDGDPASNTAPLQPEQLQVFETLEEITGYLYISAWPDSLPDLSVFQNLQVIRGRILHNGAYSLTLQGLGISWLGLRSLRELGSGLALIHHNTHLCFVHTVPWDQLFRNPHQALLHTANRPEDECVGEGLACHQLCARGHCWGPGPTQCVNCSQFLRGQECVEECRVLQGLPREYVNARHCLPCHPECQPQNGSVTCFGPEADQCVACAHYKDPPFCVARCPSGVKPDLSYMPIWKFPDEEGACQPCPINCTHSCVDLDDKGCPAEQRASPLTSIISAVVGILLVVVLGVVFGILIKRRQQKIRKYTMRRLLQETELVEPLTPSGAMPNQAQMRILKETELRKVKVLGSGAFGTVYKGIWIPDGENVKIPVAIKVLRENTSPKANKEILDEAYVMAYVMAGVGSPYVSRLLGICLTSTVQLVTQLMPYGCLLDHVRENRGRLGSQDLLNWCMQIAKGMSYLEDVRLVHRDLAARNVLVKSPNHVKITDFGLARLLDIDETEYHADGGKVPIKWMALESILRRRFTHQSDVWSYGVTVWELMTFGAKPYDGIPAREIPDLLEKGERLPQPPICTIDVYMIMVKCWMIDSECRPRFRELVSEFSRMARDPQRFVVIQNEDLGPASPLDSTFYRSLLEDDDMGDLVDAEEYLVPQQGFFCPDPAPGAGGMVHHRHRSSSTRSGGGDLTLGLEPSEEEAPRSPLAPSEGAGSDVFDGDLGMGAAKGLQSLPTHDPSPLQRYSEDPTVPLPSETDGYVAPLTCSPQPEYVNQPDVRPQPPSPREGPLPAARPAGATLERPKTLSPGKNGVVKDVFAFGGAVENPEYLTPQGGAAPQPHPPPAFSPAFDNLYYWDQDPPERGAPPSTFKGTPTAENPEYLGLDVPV

On to `Cc1cc(Nc2ncnc3ccc(N4CC/C(=C\CN(C)C)C4=O)nc23)ccc1Oc1ccn2ncnc2c1` [Compound 47, (E)-1-(4-((4-([1,2,4]triazolo[1,5-a]pyridin-7-yloxy)-3-methylphenyl)amino)pyrido[3,2-d]pyrimidin-6-yl)-3-(2-(dimethylamino)ethylidene)pyrrolidin-2-one], for which the GI50 in test [1] came out at 4.08 nM. Besides, the pIC50 was 5.65 in test [2] and 7.54 in test [3].

As for `Cc1cc(Nc2ncnc3ccc(N4CC/C(=C\CN(C)C)C4=O)nc23)ccc1Oc1cncc(F)c1` [Compound 130, (3E)-3-[2-(dimethylamino)ethylidene]-1-[4-({4-[(5-fluoropyridin-3-yl)oxy]-3-methylphenyl}amino)pyrido[3,2-d]pyrimidin-6-yl]pyrrolidin-2-one], in test [1], the GI50 stood at 17.8 nM. For the same compound, the negative logarithm of the IC50 (pIC50) is 6.73 in test [2] and 7.39 in test [3].

On to `Cc1cc(Nc2ncnc3ccc(N4CC/C(=C\CN(C)C)C4=O)nc23)ccc1Oc1ccc2scnc2c1` [Compound 67, (E)-1-(4-((4-(benzo[d]thiazol-5-yloxy)-3-methylphenyl)amino)pyrido[3,2-d]pyrimidin-6-yl)-3-(2-(dimethylamino)ethylidene)pyrrolidin-2-one], for which the GI50 in test [1] was 1.82 nM. Besides, the pIC50 in test [2] is 7.27; in test [3] it was 7.35.

For the compound `C=C1C(=O)N(c2ccc3ncnc(Nc4ccc(Oc5ccn6ncnc6c5)c(C)c4)c3c2)CC1COCCN(C)C` (single isomer, unassigned) [Example S111, Enantiomer #1, 1-(4-(4-([1,2,4]triazolo[1,5-a]pyridin-7-yloxy)-3-methylphenylamino)quinazolin-6-yl)-4-((2-(dimethylamino)ethoxy)methyl)-3-methylenepyrrolidin-2-one], the GI50 in test [1] worked out at 18.4 nM. The pIC50 in test [2] is 6.56; in test [3] it was 7.78.

Regarding `Cc1ccc(Oc2ccc(Nc3ncnc4cnc(N5CC/C(=C\CN(C)C)C5=O)cc34)cc2C)cn1` [Compound 75, (3E)-3-[2-(dimethylamino)ethylidene]-1-[4-({3-methyl-4-[(6-methylpyridin-3-yl)oxy]phenyl}amino)pyrido[3,4-d]pyrimidin-6-yl]pyrrolidin-2-one], the GI50 in test [1] was 10.4 nM. The negative-log IC50 (pIC50) in test [2] was 6.16; in test [3], 7.69.

As for `[2H]C([2H])([2H])N(C/C=C1\CCN(c2ccc3ncnc(Nc4ccc(Oc5ccc6c(c5)ncn6C)c(C)c4)c3n2)C1=O)C([2H])([2H])[2H]` [Compound 105, (E)-3-(2-(bis(methyl-d3)amino)ethylidene)-1-(4-((3-methyl-4-((1-methyl-1H-benzo[d]imidazol-5-yl)oxy)phenyl)amino)pyrido[3,2-d]pyrimidin-6-yl)pyrrolidin-2-one], the GI50 in test [1] was found to be 2.17 nM. Further, the negative-log IC50 (pIC50) in test [2] is 6.30; in test [3], 7.36.

Regarding `C=C1C(=O)N(c2ccc3ncnc(Nc4ccc(Oc5ccc6c(c5)ncn6C)c(C)c4)c3n2)C[C@H]1C` [Compound 59, (4S)-4-methyl-1-[4-({3-methyl-4-[(1-methyl-1,3-benzodiazol-5-yl)oxy]phenyl}amino)pyrido[3,2-d]pyrimidin-6-yl]-3-methylidenepyrrolidin-2-one], the GI50 in test [1] is 13.4 nM. Further, the pIC50 in test [2] was 6.15; in test [3] it was 7.22.

`Cc1cc(Nc2ncnc3ccc(N4CC/C(=C\CN(C)C)C4=O)nc23)ccc1Oc1ccn2ccnc2c1` [Compound 71, (3E)-3-[2-(dimethylamino)ethylidene]-1-{4-[(4-{imidazo[1,2-a]pyridin-7-yloxy}-3-methylphenyl)amino]pyrido[3,2-d]pyrimidin-6-yl}pyrrolidin-2-one]: the GI50 in test [1] amounted to 2.56 nM. Also, the negative-log IC50 (pIC50) in test [2] was 6.56; in test [3], 7.59.

With `Cc1cc(Nc2ncnc3ccc(N4CC/C(=C\CN(C)C)C4=O)nc23)ccc1Cc1ccc2c(c1)ncn2C` [Compound 54, (3E)-3-[2-(dimethylamino)ethylidene]-1-[4-({3-methyl-4-[(1-methyl-1,3-benzodiazol-5-yl)methyl]phenyl}amino)pyrido[3,2-d]pyrimidin-6-yl]pyrrolidin-2-one], the GI50 in test [1] was found to be 5.37 nM. In addition, the pIC50 in test [2] is 5.81; in test [3], 7.38.

Take `Cc1cc(Nc2ncnc3cnc(N4CC/C(=C\CN(C)C)C4=O)cc23)ccc1Oc1cccnc1` [Compound 80, (3E)-3-[2-(dimethylamino)ethylidene]-1-(4-{[3-methyl-4-(pyridin-3-yloxy)phenyl]amino}pyrido[3,4-d]pyrimidin-6-yl)pyrrolidin-2-one]: the GI50 in test [1] was found to be 35.5 nM. Further, the pIC50 in test [2] was 6.15; in test [3], 7.18.

In the case of `CC1CN(c2cc3c(Nc4ccc(Oc5ccc6c(c5)nnn6C)c(F)c4)ncnc3cn2)C(=O)/C1=C/CN(C)C` (single isomer, unassigned) [Example S117, Enantiomer #2, (E)-3-(2-(dimethylamino)ethylidene)-1-(4-((3-fluoro-4-((1-methyl-1H-benzo[d][1,2,3]triazol-5-yl)oxy)phenyl)amino)pyrido[3,4-d]pyrimidin-6-yl)-4-methylpyrrolidin-2-one], in test [1], the GI50 is over 500 nM. Further, the negative logarithm of the IC50 (pIC50) in test [2] is under 5.00; in test [3] it was 6.23.

As to `C=C1C(=O)N(c2ccc3ncnc(Nc4ccc(Cc5ccn6ncnc6c5)c(C)c4)c3c2)C[C@H]1C` [Compound 36, (S)-1-(4-((4-([1,2,4]triazolo[1,5-a]pyridin-7-ylmethyl)-3-methylphenyl)amino)quinazolin-6-yl)-4-methyl-3-methylenepyrrolidin-2-one], in test [1], the GI50 was 80.5 nM. Besides, the pIC50 in test [2] was 5.63; in test [3], 7.39.

On to `Cc1cc(Nc2ncnc3ccc(N4CC/C(=C\CN(C)C)C4=O)nc23)ccc1Oc1ccc2nccnc2c1` [Compound 61, (E)-3-(2-(dimethylamino)ethylidene)-1-(4-(3-methyl-4-(quinoxalin-6-yloxy)phenylamino)pyrido[3,2-d]pyrimidin-6-yl)pyrrolidin-2-one], for which, in test [1], the GI50 is 7.15 nM. The pIC50 in test [2] is 6.00; in test [3] it was 6.88.
